The nature of data set [1]: Metabolic stability in mouse liver microsomes. The following applies: for half-life: CD-1; for microsomal CLint: CD-1, 0.5 mg protein/mL. In kind it is in vitro ADME, CD-1 mice. From the text: (§1) According to standard methods of in vitro metabolic stability studies in the art, eg., the methods described in Kerns, Edward H. and Di Li (2008). Drug-like Properties: Concepts, Structure Design and Methods: from ADME to Toxicity Optimization. San Diego: Academic Press; Di, Li et al., Optimization of a Higher Throughput Microsomal Stability Screening Assay for Profiling Drug Discovery Candidates, J. Biomol. Screen. 2003, The method described in 8(4), 453, the liver microsomal metabolic stability test of the compounds of the present disclosure was carried out analogously as follows.
(§2) The incubation system contained 0.5 mg protein/mL microsomes, cofactors, and PBS, was pre-incubated at 37° C. for 3 min, and then added the substrate (i.e., the test compounds) to initiate the reaction. Samples were taken at 0, 1, 5, 10, 15, 20, 30 and 60 min from the start of the reaction, and an appropriate terminator was added to terminate the reaction.
(§3) The terminator was an ice acetonitrile solution containing 100 ng/mL tolbutamide and 100 ng/mL labetalol.
(§4) Sample treatment (n=3): each appropriate sample was added, vortexed and centrifuged at high speed. The supernatants were collected, and the substrate was detected by HPLC-MS/MS. The peak area at the 0 min was taken as 100%. The peak areas at other time points were converted to percentage of the remaining amount. The natural logarithms of the percentage of remaining amount at each time point was plotted against the incubation time, and the slope (−k) was calculated by linear regression. Then, Clint (uL/min/mg) and half-life (T½, min) of the compounds were calculated following the equation of the inherent clearance rate (Clint)=(k* volume of incubation solution)/mass of liver microsomes.

Data set [2] can be described thus: Metabolic stability in human liver microsomes. In kind it is in vitro ADME. The following applies: for microsomal CLint: 0.5 mg protein/mL.
Excerpt: as §1, §2, §3, §4
On the technique in general: Microsomes from liver hold many membrane-bound enzymes, among them those of drug oxidation.

The test system of another data set is human PBMC (Th17 cells). Description: Th17 differentiation and IL-17 secretion in human PBMC. It is filed as cell-based. The settings on record: IL-17 ELISA after 48 hours; for Emax: maximum activation rate. How it is done:
Test procedure: PBMC cells were first thawed and plated, and then stimulated with stimulating factors (anti-hCD28: 5 μg/mL; rhTGF-β1: 5 ng/mL; rhIL-6: 20 ng/mL; rhIL-23: 10 ng/Ml) to differentiate to Th17, while adding different concentrations of compounds. All test compounds were serially diluted at 3-fold dilution with DMSO, with 8 serial dilutions starting from the maximum concentration 3 μM. The supermatants were collected after 48 hours for IL-17 ELISA detection, and compared with the solvent group, to determine the activation rate of the compounds on Th17 cells to secrete IL-17. EC50 values were fitted with Graphad8.0, and the TOP values fitted by the software was Emax %.
In general terms: ELISA stands for enzyme-linked immunosorbent assay.

Data set [3] concerns the target T1, RORγt (RORγ-LBD chimeric receptor) (Homo sapiens, UniProt P51449).
T1 construct: host or cells: HEK293T
T1 sequence (P51449 269-508 limits assumed): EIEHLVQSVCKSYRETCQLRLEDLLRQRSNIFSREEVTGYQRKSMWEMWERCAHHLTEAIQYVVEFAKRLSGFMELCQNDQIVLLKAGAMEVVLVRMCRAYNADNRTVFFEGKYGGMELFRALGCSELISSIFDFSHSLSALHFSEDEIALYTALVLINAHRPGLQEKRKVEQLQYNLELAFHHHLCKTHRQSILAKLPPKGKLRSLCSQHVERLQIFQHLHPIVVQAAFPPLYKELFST
Description: Luciferase reporter gene assay of RORγt agonistic activity in HEK293T cells. In kind it is cell-based. Also on record: Emax: dose or concentration left out as unconfirmed. The settings on record: for Emax: HEK-293T. The source says: This assay was basically carried out according to the method described in the literature ONCOIMMUNOLOGY, 2016, VOL. 5, NO. 12, e1254854.
The RORγ-LBD coding sequence was inserted into pBIND plasmid (Promega, E1581). This expression vector and a reporter vector (pGL4.35 carrying a stably integrated luciferase reporter gene driven by GAL4 promoter) were co-expressed in HEK293T host cells. When the agonist binds to the corresponding chimeric receptor, the chimeric receptor binds to the GAL4 binding site on the reporter gene carrier and stimulates reporter gene expression. The agonistic activity of the compound on RORγ was determined according to the intensity of the chemiluminescence signal.
1.1 All test compounds were serially diluted at 3-fold dilution with DMSO, with 10 serial dilutions starting from 10 mM; LIT-00093 solution was prepared similarly. […] 1.4 The compound plate was sealed and shaken for 5 min.
Cells were cultured according to ATCC standard operation, and 6*10^6 HEK293T cells were seeded into 100 mm cell culture dishes, cultured overnight in a 37° C., 5% CO2 incubator, and then transfected. Compounds of corresponding concentrations were added for treatment, and the Steady-Glo™ kit (Lot E 2520) was used for further detection.
Chemiluminescence values were detected with Envision 2104; EC50 values were calculated.
% Activity was calculated with the following equation: […]
RLU: […] R L Upositive: average value of positive control R L Uvehicle: average value of negative control
The log values of the compound concentration and % Activity were fitted using Graphad 8.0, to calculate EC50s of the compounds.

Data set [4] in a line: Pharmacokinetic (PK) assay in mice. The following applies: CD-1 mice; for CL_obs: values marked **; for AUC(0-t) / Cmax / half-life / Vd / bioavailability: mouse, plasma; for Vd: values marked *, read-out: Vss; for bioavailability: Po 5 mg/kg vs IV 1 mg/kg. It is filed as in vivo. How it is done:
The PK of each compound was determined as follows: 6 CD-1 mice (obtained from Shanghai Lingchang Biotechnology Co., Ltd.) were divided into two groups, 3 mice in each group. One group was administered intravenously at a dose of 1 mg/kg, and the vehicle was 5% DMSO/40% PEG400/55% (20% 3-CD); one group was administered by oral gavage at a dose of 5 mg/kg, and the vehicle was DMSO/1% methylcellulose (1:99). Blood samples were collected from saphenous vein of lower leg in each group at 0, 0.083, 0.25, 0.5, 1, 2, 4, 6, 8 and 24 h after administration. Approximately 40 μL of the blood samples were collected into anticoagulant tubes containing EDTA-K2. Immediately after collection, the tubes were inverted at least 5 times to ensure uniform mixing, and then placed on ice. The blood samples collected at each time point were centrifuged at 4° C., 8000 rpm for 5 minutes to obtain plasma. Another 1.5 mL centrifuge tube was marked with the compound name, animal number, and time point, and the plasma was transferred to this tube. The plasma was stored at −80° C. until analysis.
Compound concentrations in plasma were determined by UPLC-MS/MS method, and the pharmacokinetic parameters were calculated by Phoenix WinNolin 6.4 pharmacokinetic software on the obtained data.

Setting [5] is: HEK293T, GAL4 luciferase reporter, read-out: EC50.

Where two headings read alike, the source gives them in different places.

By half-life is commonly meant how long it takes for the measured level to halve. By microsomal CLint is commonly meant the rate of metabolic loss divided by the concentration. Broadly, the EC50 is the midpoint of the concentration-response curve. In general, Emax refers to the maximal effect, on the per cent scale that the assay sets. For `CS(=O)(=O)c1ccc(-c2c(Cl)cc(NC(=O)Cc3ccc(S(=O)(=O)CC4CC4)cc3)cc2Cl)cc1` [Example 17, 2-(4-((Cyclopropylmethyl)sulfonyl)phenyl)-N-(2,6-dichloro-4′-(methylsulfonyl)-[1,1′-biphenyl]-4-yl)acetamide], in data set [1], the “% Remaining (T = 60 min)” value amounted to 15.30%, the half-life worked out at 0.377 h and the microsomal CLint was 61.2 µL/min/mg. Also, in data set [2], the half-life stood at 0.055 h, the microsomal CLint was 415 µL/min/mg and the “% Remaining (T = 60 min)” value was 0%. In the data set on human PBMC (Th17 cells), this compound displayed an EC50 of 113 nM and an Emax of 295%. In data set [3], this compound yielded an EC50 of 25 nM and an Emax of 33.9%.

Usually AUC(0-t) stands for the area under the concentration-time curve up to a stated or last time point. In general, Cmax refers to the peak of the concentration-time curve. The bioavailability is the share of a dose that reaches the circulation, judged against a reference dose that is usually intravenous. Regarding `CCS(=O)(=O)c1ccc(CC(=O)Nc2cc(Cl)c(-c3ccc(S(=O)(=O)C4CC4)cc3)c(Cl)c2)nc1` [Example 21, N-(2,6-Dichloro-4′-(cyclopropylsulfonyl)-1,1′-biphenyl-4-yl)-2-(5-(ethylsulfonyl)pyridin-2-yl)acetamide], in data set [4] (IV 1 mg/kg), the CL_obs is recorded as 4.55** mL/min/kg, the AUC(0-t) stood at 3630 ng·h/mL, the peak level (Cmax) was 716 ng/mL and the half-life is 4.19 h. Also, the Vd in data set [4] (IV 1 mg/kg) was determined as 1.45 L/kg. The compound further yielded a bioavailability in data set [4] of 30.9%. In data set [4] (Po 5 mg/kg), this compound had an exposure AUC(0-t) of 5630 ng·h/mL, a Cmax of 611 ng/mL and a half-life of 3.83 h. Besides, in data set [1], the “% Remaining (T = 60 min)” value was found to be 56%, the half-life worked out at 1.33 h and the microsomal CLint was 17.3 µL/min/mg. In data set [2], the half-life was greater than 2.42 h, the microsomal CLint is less than 9.6 µL/min/mg and the “% Remaining (T = 60 min)” value was found to be 79.6%. In the data set on human PBMC (Th17 cells), this compound returned an EC50 of 183 nM and an Emax of 297%. Moreover, in data set [3] (setting [5]), the EC50 amounted to 72 nM. The compound also yielded an Emax in data set [3] of 51.2%.

Consider `CCS(=O)(=O)c1ccc(-c2c(Cl)cc(NC(=O)C(COC)c3ccc(S(C)(=O)=O)cc3)cc2Cl)cc1` (stereo not shown) [Example 19, N-(2,6-Dichloro-4′-(ethylsulfonyl)-[1,1′-biphenyl]-4-yl)-3-methoxy-2-(4-(methylsulfonyl)phenyl)propionamide], for which, in data set [4] (IV 1 mg/kg), the CL_obs is on record as 26.0** mL/min/kg, the AUC(0-t) came to 647 ng·h/mL, the highest concentration (Cmax) was determined as 932 ng/mL and the half-life was 0.63 h. In addition, in data set [4] (IV 1 mg/kg), the Vd stood at 1.09 L/kg. This compound yielded a bioavailability in data set [4] of 29.7%. Also, in data set [4] (Po 5 mg/kg), the AUC(0-t) is 924 ng·h/mL, the Cmax worked out at 419 ng/mL and the half-life is 1.51 h. Moreover, in data set [1], the “% Remaining (T = 60 min)” value was 23.10%, the half-life came out at 0.487 h and the microsomal CLint amounted to 47.4 µL/min/mg. Besides, in data set [2], the half-life was determined as 1.78 h, the microsomal CLint stood at 13 µL/min/mg and the “% Remaining (T = 60 min)” value came to 60%. In addition, in the data set with human PBMC (Th17 cells), the EC50 was 32.1 nM and the Emax stood at 232%. Further, the EC50 in data set [3] (setting [5]) came to 123 nM. This compound showed an Emax in data set [3] of 91.4%.

On to `CCS(=O)(=O)c1ccc(C(COC)C(=O)Nc2cc(Cl)c(-c3ccc(S(C)(=O)=O)cc3)c(Cl)c2)cc1` (stereo not shown) [Example 15, N-(2,6-Dichloro-4′-(methylsulfonyl)-[1,1′-biphenyl]-4-yl)-2-(4-(ethylsulfonyl)phenyl)-3-methoxypropionamide], for which, in data set [4] (IV 1 mg/kg), the AUC(0-t) was found to be 2300 ng·h/mL, the concentration peaked (Cmax) at 1440 ng/mL, the half-life was 1.23 h and the Vd was 0.71 L/kg. This compound also displayed a bioavailability in data set [4] of 40%. Further, in data set [4] (Po 5 mg/kg), the AUC(0-t) is 4240 ng·h/mL, the Cmax stood at 1060 ng/mL and the half-life is 2.32 h. Further, in data set [1], the “% Remaining (T = 60 min)” value is listed as 82.60%, the half-life is greater than 2.42 h and the microsomal CLint is less than 9.6 µL/min/mg. In addition, in data set [2], the half-life amounted to 1.3 h, the intrinsic clearance (microsomal CLint) worked out at 17.8 µL/min/mg and the “% Remaining (T = 60 min)” value was found to be 58.7%. In the data set with human PBMC (Th17 cells), the EC50 came out at 45.1 nM and the Emax was 197%. Moreover, in data set [3] (setting [5]), the EC50 came out at 202 nM. For the same compound, the Emax in data set [3] came to 79.5%.

For the compound `COCC(C(=O)Nc1cc(Cl)c(-c2ccc(S(C)(=O)=O)cc2)c(Cl)c1)c1ccc(S(=O)(=O)CC2CC2)cc1` (stereo not shown) [Example 18, 2-(4-((Cyclopropylmethyl)sulfonyl)phenyl)-N-(2,6-dichloro-4′-(methylsulfonyl)-[1,1′-biphenyl]-4-yl)-3-methoxypropionamide], in data set [1], the “% Remaining (T = 60 min)” value is recorded as 15.10%, the half-life worked out at 0.402 h and the microsomal CLint amounted to 57.6 µL/min/mg. In addition, in data set [2], the half-life came to 0.192 h, the microsomal CLint came out at 121 µL/min/mg and the “% Remaining (T = 60 min)” value worked out at 2%. In the data set on human PBMC (Th17 cells), this compound returned a half-maximal effective concentration (EC50) of 29.4 nM and an Emax of 193%. Moreover, in data set [3] (setting [5]), the EC50 worked out at 784 nM. Further, the Emax in data set [3] worked out at 137%.

The values are drawn from patent US20220402867A1, “SULFO-SUBSTITUTED BIARYL COMPOUND OR SALT THEREOF, PREPARATION METHOD THEREFOR, AND USE THEREOF” (Shanghai Litedd Co., Ltd., priority 2019, published 2022).
